Consider seven compounds from paper PMC7127694 (Bioorganic & Medicinal Chemistry, 2009).

Series [1] relates to BVDV. The settings on record: read-out: EC50 (anti-BVDV); cited from earlier work.
Series [2] deals with RSV. The settings on record: read-out: EC50 (anti-RSV), cited from earlier work.
Series [3] deals with HSV-1 (Herpes Simplex virus, Type-1). The class given is cell-based.
The nature of series [4]: Cytotoxicity on host cells, mean over the host cell lines. The settings on record: human, bovine, hamster, monkey.

Where two headings read alike, the source gives them in different places.

As for “3-[(dipropylaminoethyl)thio]-5H-1,2,4-triazino[5,6-b]indole [VP32947]”, the EC50 (commonly the midpoint of the concentration-response curve) in series [1] was 0.03 to 0.04 µM.
For `O=c1n(Cc2nc3ccccc3n2CCCCO)c2cnccc2n1C1CC1` [BMS-433771], in series [2] (fusion inhibitor), the EC50 is 0.021 µM.
For the compound `Brc1ccc(Cn2ccc3nc(-c4ccccc4)nc-3c2)cc1` [BPIP, 5-[4-bromobenzyl]-2-phenyl-5H-imidazo[4,5-c]pyridine], the 50% effective concentration (EC50) in series [1] was 0.03 to 0.04 µM.
On to `CN(C)CCCNc1ccc(/N=N/c2cccc([N+](=O)[O-])c2)cc1.Cl` [Compound 2, N,N-Dimethyl-N′-[4-(3-nitrophenylazo)phenyl]propane-1,3-diamine], for which the “S. I. (selectivity index), HSV-1” value in series [3] worked out at 4.2.
As for `Fc1ccc(/N=N/c2ccc(NC[C@@H]3CCCN4CCCC[C@H]34)c3c2CCCC3)c(F)c1` [Compound 12], in series [4], half-maximal cytotoxicity (CC50) was put at 21.5 µM.
Consider `CN(C)CCCN(/N=N/c1cc(F)ccc1F)c1ccccc1` [Compound 29, 1-[1-(2,5-Difluorophenyl)-3-phenyltriazen-3-yl]-N,N-dimethyl-3-propanamine], for which the CC50 (commonly the concentration at which the toxic effect on the cells reaches its halfway point) in series [4] is 17.5 µM.
On to `O=C(Nc1ccccc1F)N[C@H]1N=C(c2ccccc2)c2ccccc2NC1=O` [RSV-604], for which the half-maximal effective concentration (EC50) in series [2] (S-enantiomer) is 0.9 µM.
